According to patent US20190270733A1, “Quinoline and Isoquinoline Based HDAC Inhibitors and Methods of Use Thereof” (Reaction Biology Corp., priority 2018, published 2019):
Values joined by “and” are separate entries in the source; they are usually repeats but may differ in a detail not shown here. Equal entries are not always repeated. Where two headings read alike, the source gives them in different places.

Legend:
[1] = Mouse plasma PK (IV and PO dosing); type: in vivo, Male C57 Bl/6J mice; details: for AUC(0-inf): read-out: AUCINF—obs (converted); for MRT inf: read-out: MRTINF—obs
Description: In vivo PK (pharmacokinetics) studies were run at Scripps Florida DMPK Core facility. Mouse plasma PK data was obtained using the compound of Example 5 (N-(2-amino-5-(thiophen-2-yl)phenyl)-2-oxo-1,2,3,4-tetrahydroquinoline-6-carboxamide)
Dose: 1 mg/kg intravenous (IV), 7 mg/kg oral dosing (PO)
Formulation: 0.1 mg/mL (IV) and 1 mg/mL (PO) solution in 10/10/80 DMSO/Tween80/Water
Mice Info: Male C57 Bl/6J
Plasma PK were evaluated in mice after administration of compound Example 5. […] (Tmax), maximal concentration (Cmax), observed clearance (Cl_obs), mean residential time (MRT), and observed volume distribution (Vss_obs) were also quantified (Tables 2 and 3).

Human HDAC1 = molecular target: T1, Human HDAC1 (Homo sapiens, UniProt Q13547); test: Biochemical HDAC assay, HDAC1; details: incubation time 120 min
T1 construct: full-length with a C-terminal His-tag and a C-terminal FLAG-tag; His-tag (C); FLAG-tag (C); made in house
T1 sequence (Q13547 whole entry): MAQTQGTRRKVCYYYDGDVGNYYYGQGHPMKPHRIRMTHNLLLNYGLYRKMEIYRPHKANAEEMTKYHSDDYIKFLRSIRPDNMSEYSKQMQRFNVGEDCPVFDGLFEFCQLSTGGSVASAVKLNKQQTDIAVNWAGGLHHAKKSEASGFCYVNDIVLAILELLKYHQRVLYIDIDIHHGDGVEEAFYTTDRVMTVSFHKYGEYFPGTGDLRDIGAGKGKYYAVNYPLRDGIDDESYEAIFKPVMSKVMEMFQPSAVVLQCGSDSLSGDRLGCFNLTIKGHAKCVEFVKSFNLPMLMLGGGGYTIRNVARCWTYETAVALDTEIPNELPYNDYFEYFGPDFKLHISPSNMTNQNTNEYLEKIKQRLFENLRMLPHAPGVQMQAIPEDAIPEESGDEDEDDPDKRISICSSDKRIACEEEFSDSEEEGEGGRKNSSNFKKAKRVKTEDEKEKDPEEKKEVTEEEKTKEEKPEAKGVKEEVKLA
Description: Human HDAC1 (GenBank Accession No. NM_004964), full-length with a C-terminal His-tag and a C-terminal FLAG-tag, MW=56 kDa, was expressed in a baculovirus expression system.
(§1) • I. Compound handling: Testing compounds were dissolved in 100% DMSO to a specific concentration. The serial dilution was conducted by epMotion 5070 in DMSO. • II. HDAC reaction buffer: 50 mM Tris-HCl, pH8.0, 137 mM NaCl, 2.7 mM KCl, and 1 mM MgCl2, Added fresh: 1 mg/ml BSA, 1% DMSO. • III. Substrate: Fluorogenic HDAC General Substrate for HDAC1, 2, 3, 6, 10, 11 ans Sirt1, 2 and 3: Arg-His-Lys-Lys(Ac); HDAC8 only substrate: Arg-His-Lys(Ac)-Lys(Ac); Class2A Substrate (HDAC4, 5, 7 and 9): Acetyl-Lys(trifluoroacetyl)-AMC; Sirt5 substrate: Ac-Lys(succinyl)-AMC. • IV. General Reaction Procedure: (Standard IC50 determination) • a. Delivered 2× enzyme in wells of reaction plate except No Enzyme (No En) control wells. Add buffer in No En wells. • b. Delivered compounds in 100% DMSO into the enzyme mixture by Acoustic technology (Echo550; nanoliter range). Spin down and pre-incubation. • c. Delivered 2× Substrate Mixture (Fluorogenic HDAC Substrate and co-factor (500 μM of Nicotinamide adenine dinucleotide (NAD^+) in all Sirt assay) in all reaction wells to initiate the reaction. Spin and shake. • d. Incubated for 1-2 hr. at 30° C. with seal. • e. Added Developer with Trichostatin A (or TMP269 or NAD^+) to stop the reaction and to generate fluorescent color. • f. Fluorescence was read (excitatory, 360; emission, 460) using the EnVision Multilabel Plate Reader (Perkin Elmer) • g. Endpoint reading was taken for analysis after the development reaches plateau. • V. Data Analysis: The percentages of enzyme activity (relative to DMSO controls) and IC50 values were calculated using the GraphPad Prism 4 program based on a sigmoidal dose-response equation.
(§2) Compounds with indicated doses was tested in the biochemical assays of HDAC1, HDAC2, HDAC3, HDAC4, HDAC5, HDAC6, HDAC7, HDAC8, HDAC9, HDAC10, or HDAC11 enzyme. The incubation time in HDAC1/2 assays are 120 min, and that for other HDACs are 10 min. The curve fit and IC50 values were calculated using the GraphPad Prism 4 program based on a sigmoidal dose-response equation.

Human HDAC8 = molecular target: T2, Human HDAC8 (Homo sapiens, UniProt Q9BY41); test: Biochemical HDAC assay, HDAC8; details: incubation time 10 min
T2 construct: full-length with a C-terminal His tag; His tag (C); made in house
T2 sequence (Q9BY41 1-377): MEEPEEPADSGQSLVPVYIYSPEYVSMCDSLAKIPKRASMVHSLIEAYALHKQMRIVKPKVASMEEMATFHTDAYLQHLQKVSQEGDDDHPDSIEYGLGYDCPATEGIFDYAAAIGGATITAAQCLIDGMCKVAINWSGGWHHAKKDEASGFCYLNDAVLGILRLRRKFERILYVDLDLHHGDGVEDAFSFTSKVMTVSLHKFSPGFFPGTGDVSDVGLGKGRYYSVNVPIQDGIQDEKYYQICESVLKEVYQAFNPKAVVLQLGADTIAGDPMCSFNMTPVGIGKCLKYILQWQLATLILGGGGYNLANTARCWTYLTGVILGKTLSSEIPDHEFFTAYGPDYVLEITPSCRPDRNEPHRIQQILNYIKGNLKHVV
Description: Human HDAC8 (GenBank Accession No. NM_018486), full-length with a C-terminal His tag, MW=46.4 kDa, was expressed in a baculovirus expression system.
as §1, §2

[2] = IV 1 mg/kg, mouse plasma, average
[3] = IV 1 mg/kg, mouse plasma, individual mice, 1 mg/kg
[4] = IV administration, mouse plasma
[5] = PO 7 mg/kg, mouse plasma, average
[6] = PO 7 mg/kg, mouse plasma, individual mice, 7 mg/kg
[7] = male, C57 Bl/6J, mouse, plasma, iv, 1 mg/kg, IV 1 mg/kg, mouse plasma, average
[8] = male, C57 Bl/6J, mouse, plasma, iv, 1 mg/kg, IV 1 mg/kg, mouse plasma, individual mice
[9] = male, C57 Bl/6J, mouse, plasma, po, 7 mg/kg, PO 7 mg/kg, mouse plasma, average
[10] = male, C57 Bl/6J, mouse, plasma, po, 7 mg/kg, PO 7 mg/kg, mouse plasma, individual mice

AUC (% Extrap) [1, 2]: 1.42%
Cl_obs [1, 2]: 5.33 mL/min/kg
Vss_obs [1, 2]: 0.40 L/kg
AUC (% Extrap) [1, 3]: 1.31% and 1.23% and 1.71%
Cmax [1, 3]: 2480 ng/mL and 4540 ng/mL and 5820 ng/mL
MRTINF—obs [1, 3]: 1.19 h and 1.14 h
T1/2 [1, 3]: 1.52 h and 1.59 h
Tmax [1, 3]: 0.08 hr (2×) and 0.25 hr
Vss_obs [1, 3]: 0.48 L/kg and 0.39 L/kg and 0.33 L/kg
Cmax ([1]; IV 1 mg/kg, mouse plasma, individual mice, 1 mg/kg, read-out: Cmax): 6.83 µM and 12.5 µM and 16 µM
clearance (in words) [1, 4]: low clearance
volume (in words) [1, 4]: low volume
AUC (% Extrap) [1, 5]: 9.95%
Cl_obs [1, 5]: 25.89 mL/min/kg
AUC (% Extrap) [1, 6]: 6.21% and 14.68% and 8.96%
Cmax [1, 6]: 1590 ng/mL and 1620 ng/mL
T1/2 [1, 6]: 3.30 h and 2.62 h
Tmax [1, 6]: 1.00 hr and 0.25 hr (2×)
Cmax ([1]; PO 7 mg/kg, mouse plasma, individual mice, 7 mg/kg, read-out: Cmax): 4.38 µM and 4.46 µM
AUC ([1]; male, C57 Bl/6J, 1 mg/kg, IV administration, mouse plasma, read-out: AUC): 8.5 µM·h
AUC ([1]; male, C57 Bl/6J, 7 mg/kg, PO dosing, mouse plasma, read-out: AUC (area under the curve)): 11 to 12 µM·h
AUC(0-t) [1, 7]: 8.53 µM·h and 3100 ng·h/mL
AUC(0-inf) [1, 7]: 3140 ng·h/mL
Cmax ([1]; male, C57 Bl/6J, mouse, plasma, iv, 1 mg/kg, IV 1 mg/kg, mouse plasma, average, read-out: Cmax): 4280 ng/mL and 11.8 µM
MRT inf [1, 7]: 1.24 h
half-life ([1]; male, C57 Bl/6J, mouse, plasma, iv, 1 mg/kg, IV 1 mg/kg, mouse plasma, average, read-out: T1/2 (converted)): 1.48 h
Tmax ([1]; male, C57 Bl/6J, mouse, plasma, iv, 1 mg/kg, IV 1 mg/kg, mouse plasma, average, read-out: Tmax): 0.14 h
AUC(0-t) [1, 8]: 7.88 µM·h and 2860 ng·h/mL
AUC(0-inf) [1, 8]: 2900 ng·h/mL
MRT inf [1, 8]: 1.39 h
half-life ([1]; male, C57 Bl/6J, mouse, plasma, iv, 1 mg/kg, IV 1 mg/kg, mouse plasma, individual mice, read-out: T1/2 (converted)): 1.34 h
half-life ([1]; male, C57 Bl/6J, mouse, plasma, iv, 1 mg/kg, IV administration, mouse plasma, read-out: half-life (T1/2) (converted)): 1.5 h
AUC(0-t) [1, 9]: 11.8 µM·h and 4270 ng·h/mL
AUC(0-inf) [1, 9]: 4710 ng·h/mL
Cmax ([1]; male, C57 Bl/6J, mouse, plasma, po, 7 mg/kg, PO 7 mg/kg, mouse plasma, average, read-out: Cmax): 1960 ng/mL and 5.4 µM
half-life ([1]; male, C57 Bl/6J, mouse, plasma, po, 7 mg/kg, PO 7 mg/kg, mouse plasma, average, read-out: T1/2 (converted)): 2.66 h
Tmax ([1]; male, C57 Bl/6J, mouse, plasma, po, 7 mg/kg, PO 7 mg/kg, mouse plasma, average, read-out: Tmax): 0.5 h
AUC(0-t) [1, 10]: 15.9 µM·h and 5760 ng·h/mL
AUC(0-inf) [1, 10]: 6140 ng·h/mL
Cmax ([1]; male, C57 Bl/6J, mouse, plasma, po, 7 mg/kg, PO 7 mg/kg, mouse plasma, individual mice, read-out: Cmax): 2670 ng/mL and 7.36 µM
half-life ([1]; male, C57 Bl/6J, mouse, plasma, po, 7 mg/kg, PO 7 mg/kg, mouse plasma, individual mice, read-out: T1/2 (converted)): 2.05 h
half-life ([1]; male, C57 Bl/6J, mouse, plasma, po, 7 mg/kg, PO dosing, mouse plasma, read-out: half-life (converted)): 2.7 h
bioavailability ([1]; male, C57 Bl/6J, plasma, PO 7 mg/kg vs IV 1 mg/kg, mouse, read-out: % F (bioavailability)): 20%
IC50 (Human HDAC1): 2.5 nM
IC50 (Human HDAC8): > 10000 nM
Compound: Nc1ccc(-c2cccs2)cc1NC(=O)c1ccc2c(c1)CCC(=O)N2 [Example 5, N-(2-amino-5-(thiophen-2-yl)phenyl)-2-oxo-1,2,3,4-tetrahydroquinoline-6-carboxamide]
AUCINF—obs [1, 3]: 184402 ng·min/mL and 207009 ng·min/mL
AUClast [1, 3]: 8.36 μM · hr and 9.34 μM · hr and 182140 min * ng/mL and 203467 min * ng/mL
Cl_obs [1, 3]: 5.75 mL/min/kg and 5.42 mL/min/kg and 4.83 mL/min/kg
AUCINF—obs [1, 6]: 227793 ng·min/mL and 250553 ng·min/mL
AUClast [1, 6]: 8.92 μM · hr and 10.47 μM · hr and 194363 min * ng/mL and 228113 min * ng/mL
Cl_obs [1, 6]: 18.99 mL/min/kg and 30.73 mL/min/kg and 27.94 mL/min/kg
